Consider seven molecules from article PMC5225157 (Biochemistry, 2016).

* marks the point of attachment. Dansyl = CN(C)c1cccc2c(S(=O)(=O)*)cccc12

Assay [1] relates to C. reinhardtii P4H-1 (CrP4H-1). The assay is described as follows: UPLC assay of dansyl peptides as substrates. Type of assay: biochemical, Chlamydomonas reinhardtii. Conditions: for hydroxylation of dansyl isosteres by CrP4H-1: UPLC, data not shown.
Assay [2] relates to C. reinhardtii P4H-1 (CrP4H-1). The conditions noted are these: isostere 100 µM, dansylGPPGOEt 0.50 mM, α-ketoglutarate 1.00 mM, NHis6-CrP4H-1 1.2 µM, 30 °C, 1 h, UPLC; three independent experiments.
Assay [3] deals with T1, human CP4H1 (Homo sapiens, UniProt P13674). Nature of the assay: Inhibition of human CP4H1 activity by alkene isosteres. Type of assay: biochemical. The conditions noted are these: for inhibition of catalysis by human CP4H: dansyl isostere 100 µM, dansylGPPGOEt 0.50 mM, pH 7.8, 30 °C, mean (± SD) of three independent experiments; for inhibition of catalysis by human CP4H / relative inhibitory potency, cis versus trans Cbz isosteres: α-ketoglutarate 1.00 mM; for relative inhibitory potency, cis versus trans Cbz isosteres: Cbz isostere 1.00 mM, CbzGPPGOEt 1.00 mM as substrate, pH 7.8, three independent experiments.

Assay [4] relates to CP4H. The conditions noted are these: a CP4H; cited from earlier work.
Assay [5] addresses T1, human CP4H1. The assay is described as follows: UPLC assay of model peptides and isosteres as substrates. Type of assay: biochemical.

T1 sequence (P13674 18-534): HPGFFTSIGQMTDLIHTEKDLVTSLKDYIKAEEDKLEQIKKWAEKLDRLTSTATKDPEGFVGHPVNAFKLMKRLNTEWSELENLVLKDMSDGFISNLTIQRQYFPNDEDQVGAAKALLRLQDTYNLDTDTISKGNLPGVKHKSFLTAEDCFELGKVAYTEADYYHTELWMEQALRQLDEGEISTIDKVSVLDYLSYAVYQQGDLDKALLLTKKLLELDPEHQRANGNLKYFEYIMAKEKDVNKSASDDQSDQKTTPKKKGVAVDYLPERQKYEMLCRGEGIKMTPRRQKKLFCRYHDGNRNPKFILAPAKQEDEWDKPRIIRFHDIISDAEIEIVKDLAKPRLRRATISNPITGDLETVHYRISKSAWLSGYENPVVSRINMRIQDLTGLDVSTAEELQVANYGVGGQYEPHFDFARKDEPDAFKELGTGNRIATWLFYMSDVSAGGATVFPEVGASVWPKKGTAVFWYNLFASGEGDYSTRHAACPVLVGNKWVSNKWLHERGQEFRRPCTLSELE
T1 sequence (P07237 18-508 partner): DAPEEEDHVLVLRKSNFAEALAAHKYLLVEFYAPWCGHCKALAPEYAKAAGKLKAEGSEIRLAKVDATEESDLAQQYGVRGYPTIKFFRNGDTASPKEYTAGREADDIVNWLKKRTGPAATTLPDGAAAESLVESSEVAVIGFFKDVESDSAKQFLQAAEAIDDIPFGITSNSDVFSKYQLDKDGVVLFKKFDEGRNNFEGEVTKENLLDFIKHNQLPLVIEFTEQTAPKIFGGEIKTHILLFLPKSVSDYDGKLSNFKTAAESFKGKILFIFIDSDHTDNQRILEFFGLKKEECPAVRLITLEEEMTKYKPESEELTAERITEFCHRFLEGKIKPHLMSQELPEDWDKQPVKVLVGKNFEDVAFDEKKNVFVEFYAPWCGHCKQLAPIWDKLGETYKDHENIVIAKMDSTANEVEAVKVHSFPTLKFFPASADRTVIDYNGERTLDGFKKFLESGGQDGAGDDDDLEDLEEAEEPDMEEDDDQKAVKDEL

As for `CCOC(=O)CNC(=O)[C@@H]1CCC/C1=C\[C@@H]1CCCN1C(=O)CNS(=O)(=O)c1cccc2c(N(C)C)cccc12` [Compound 3, dansylGPtransPGOEt], the “hydroxylation of dansyl isosteres by CrP4H-1” value in assay [1] is on record as “did not observe hydroxylation”. Besides, the “inhibition of CrP4H-1” value in assay [2] is on record as “served as inhibitors of CrP4H-1”. Further, in assay [3], the IC50 (usually the midpoint of a concentration-inhibition curve) is 410 ± 30 µM and the “inhibition of catalysis by human CP4H” value is “inhibitors of catalysis by human CP4H”.
For the molecule `CCOC(=O)CNC(=O)[C@@H]1CCC/C1=C/[C@@H]1CCCN1C(=O)CNS(=O)(=O)c1cccc2c(N(C)C)cccc12` [Compound 5, dansylGPcisPGOEt], the “hydroxylation of dansyl isosteres by CrP4H-1” value in assay [1] is given as “did not observe hydroxylation”. The “inhibition of CrP4H-1” value in assay [2] is recorded as “served as inhibitors of CrP4H-1”. In assay [3], inhibition was half-maximal at 75 ± 6 µM (IC50), affinity was put at a Ki of 56 ± 13 µM and the “inhibition of catalysis by human CP4H” value is recorded as “inhibitors of catalysis by human CP4H”.
As to (ProProGly)10, in assay [4], the “mode of substrate inhibition versus α-ketoglutarate” value is “competitive with the cosubstrate α-ketoglutarate” and the “substrate inhibition during turnover of longer collagen mimetic peptide” value is recorded as “Substrate inhibition had been observed”.
For CbzGPcisPGOEt [Compound 6], the “relative inhibitory potency, cis versus trans Cbz isosteres” value in assay [3] is “the cis isostere inhibits with greater potency than does the trans isostere”.
As to CbzGPtransPGOEt [Compound 4], the “relative inhibitory potency, cis versus trans Cbz isosteres” value in assay [3] was “the cis isostere inhibits with greater potency than does the trans isostere”.
For “dansylGlyProProGlyOEt (Dansyl-GPPG-OEt; SMILES CCOC(=O)CNC(=O)[C@@H]1CCCN1C(=O)[C@@H]1CCCN1C(=O)CNS(=O)(=O)c1cccc2c(N(C)C)cccc12) [Compound 1]”, the Ki – broadly, the equilibrium dissociation constant of an inhibitor or competing ligand from its target – in assay [5] (read-out: Ki (dissociation constant for substrate binding in an inhibitory manner), substrate-inhibition fit (R^2 = 0.98), dansylGPPGOEt 58–1860 µM, α-ketoglutarate 1.00 mM, CP4H1 100 nM, pH 7.8, 30 °C, 15 min, UPLC A289, triplicate) was 300 ± 100 µM.
As to dansylGlyProProGlyOEt [Compound 1], the “kinetic pattern of turnover (CrP4H-1)” value in assay [1] (dansylGPPGOEt 212–2120 µM, α-ketoglutarate 1.00 mM) is “substrate inhibition phenomenon similar to that observed for human CP4H1”. Further, the “kinetic pattern of turnover” value in assay [5] (dansylGPPGOEt 58–1860 µM, α-ketoglutarate 1.00 mM, pH 7.8, 30 °C) was “substrate inhibition”. For the same molecule, the “substrate inhibition at saturating α-ketoglutarate” value in assay [5] (saturating concentrations of α-ketoglutarate, human CP4H1) is listed as “observed even at saturating concentrations of α-ketoglutarate”.
